SMILES strings stand for the structures.

One data set concerns the target PI3kδ (Homo sapiens, UniProt O00329). In words: Fluorescent (HTRF) determination of PI3 kinase enzyme activity, PI3Kδ. To be noted: for inhibition at 0.1 µM: 100 nM (Examples 60-137). It is filed as biochemical. An outline of the steps: (§1)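 Human PI3K isoforms were preincubated with compound for 10 min at room temperature in 10 mM MgCl2, 5 mM DTT, 1.38 μM PIP2, then reacted 30 min after adding 400 μM ATP stock. PIP3 was read by HTRF (665/620 nm). Percent inhibition used blank and enzyme controls; single-point testing was at 1 uM for α/β and 0.3 or 0.1 uM for γ/δ.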
Background: Time-resolved FRET reads energy transfer from a long-lived donor to a nearby acceptor.

Another data set concerns the target PI3kβ (Homo sapiens, UniProt P42338). Nature of the data set: Fluorescent (HTRF) determination of PI3 kinase enzyme activity, PI3Kβ. The data set is classed as biochemical. To be noted: 1 uM. In outline:
as §1

The target in another data set is PI3kγ (Homo sapiens, UniProt P48736). Nature of the data set: Fluorescent (HTRF) determination of PI3 kinase enzyme activity, PI3Kγ. The data set is classed as biochemical. To be noted: 100 nM (Examples 60-137). An outline of the steps:
as §1

The target of another data set is PI3kα (Homo sapiens, UniProt P42336). Nature of the data set: Fluorescent (HTRF) determination of PI3 kinase enzyme activity, PI3Kα. It is filed as biochemical. To be noted: 1 uM. An outline of the steps:
as §1

PI3kβ, sequence (P42338 whole entry): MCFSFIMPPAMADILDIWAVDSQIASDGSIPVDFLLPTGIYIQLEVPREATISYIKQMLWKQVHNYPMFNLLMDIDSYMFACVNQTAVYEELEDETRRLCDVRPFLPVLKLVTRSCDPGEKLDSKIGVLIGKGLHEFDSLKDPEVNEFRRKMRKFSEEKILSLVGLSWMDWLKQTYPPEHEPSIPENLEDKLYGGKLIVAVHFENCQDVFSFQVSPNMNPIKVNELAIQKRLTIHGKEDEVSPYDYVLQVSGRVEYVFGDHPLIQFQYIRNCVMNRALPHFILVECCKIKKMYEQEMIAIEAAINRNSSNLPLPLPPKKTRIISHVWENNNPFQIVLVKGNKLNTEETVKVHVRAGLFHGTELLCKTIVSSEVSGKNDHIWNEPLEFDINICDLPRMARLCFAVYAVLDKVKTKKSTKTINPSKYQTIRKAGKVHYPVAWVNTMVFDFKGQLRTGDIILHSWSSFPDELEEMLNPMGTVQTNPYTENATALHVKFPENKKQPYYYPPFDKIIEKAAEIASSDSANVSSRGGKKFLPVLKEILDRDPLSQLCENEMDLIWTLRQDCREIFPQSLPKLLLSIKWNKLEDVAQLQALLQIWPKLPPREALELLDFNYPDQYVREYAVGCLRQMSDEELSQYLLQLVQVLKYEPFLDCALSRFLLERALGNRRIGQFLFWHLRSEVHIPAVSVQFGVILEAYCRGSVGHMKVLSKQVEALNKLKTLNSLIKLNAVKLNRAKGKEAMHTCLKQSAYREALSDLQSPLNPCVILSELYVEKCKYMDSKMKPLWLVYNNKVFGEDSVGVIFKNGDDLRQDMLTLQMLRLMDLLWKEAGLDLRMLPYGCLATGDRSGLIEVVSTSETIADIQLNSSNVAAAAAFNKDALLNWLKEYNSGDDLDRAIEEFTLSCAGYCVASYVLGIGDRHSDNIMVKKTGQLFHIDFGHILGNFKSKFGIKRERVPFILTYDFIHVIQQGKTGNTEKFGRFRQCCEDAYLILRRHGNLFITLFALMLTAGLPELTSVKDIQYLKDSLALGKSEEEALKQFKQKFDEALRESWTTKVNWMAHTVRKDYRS
PI3kβ, sequence (P27986 whole entry partner): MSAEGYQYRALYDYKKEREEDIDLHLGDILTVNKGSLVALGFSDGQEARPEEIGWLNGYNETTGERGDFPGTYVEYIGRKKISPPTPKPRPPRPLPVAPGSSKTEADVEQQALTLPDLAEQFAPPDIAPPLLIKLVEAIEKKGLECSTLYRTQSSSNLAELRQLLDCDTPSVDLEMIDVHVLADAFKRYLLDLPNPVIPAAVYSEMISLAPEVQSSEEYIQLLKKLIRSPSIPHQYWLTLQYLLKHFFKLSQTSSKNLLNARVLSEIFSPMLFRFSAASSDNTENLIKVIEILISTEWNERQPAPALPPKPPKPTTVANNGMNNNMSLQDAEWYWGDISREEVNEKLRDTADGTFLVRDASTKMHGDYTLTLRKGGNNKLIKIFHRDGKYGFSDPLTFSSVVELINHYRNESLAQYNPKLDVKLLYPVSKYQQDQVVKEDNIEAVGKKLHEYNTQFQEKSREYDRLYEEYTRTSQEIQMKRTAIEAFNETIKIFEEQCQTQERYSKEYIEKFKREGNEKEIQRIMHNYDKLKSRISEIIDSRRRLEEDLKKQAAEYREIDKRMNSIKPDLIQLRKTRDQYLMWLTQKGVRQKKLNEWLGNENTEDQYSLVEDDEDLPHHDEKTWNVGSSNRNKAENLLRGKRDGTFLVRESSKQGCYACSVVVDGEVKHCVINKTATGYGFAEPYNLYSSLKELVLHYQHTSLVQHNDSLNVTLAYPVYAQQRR
PI3kδ, sequence (O00329 whole entry, canonical isoform): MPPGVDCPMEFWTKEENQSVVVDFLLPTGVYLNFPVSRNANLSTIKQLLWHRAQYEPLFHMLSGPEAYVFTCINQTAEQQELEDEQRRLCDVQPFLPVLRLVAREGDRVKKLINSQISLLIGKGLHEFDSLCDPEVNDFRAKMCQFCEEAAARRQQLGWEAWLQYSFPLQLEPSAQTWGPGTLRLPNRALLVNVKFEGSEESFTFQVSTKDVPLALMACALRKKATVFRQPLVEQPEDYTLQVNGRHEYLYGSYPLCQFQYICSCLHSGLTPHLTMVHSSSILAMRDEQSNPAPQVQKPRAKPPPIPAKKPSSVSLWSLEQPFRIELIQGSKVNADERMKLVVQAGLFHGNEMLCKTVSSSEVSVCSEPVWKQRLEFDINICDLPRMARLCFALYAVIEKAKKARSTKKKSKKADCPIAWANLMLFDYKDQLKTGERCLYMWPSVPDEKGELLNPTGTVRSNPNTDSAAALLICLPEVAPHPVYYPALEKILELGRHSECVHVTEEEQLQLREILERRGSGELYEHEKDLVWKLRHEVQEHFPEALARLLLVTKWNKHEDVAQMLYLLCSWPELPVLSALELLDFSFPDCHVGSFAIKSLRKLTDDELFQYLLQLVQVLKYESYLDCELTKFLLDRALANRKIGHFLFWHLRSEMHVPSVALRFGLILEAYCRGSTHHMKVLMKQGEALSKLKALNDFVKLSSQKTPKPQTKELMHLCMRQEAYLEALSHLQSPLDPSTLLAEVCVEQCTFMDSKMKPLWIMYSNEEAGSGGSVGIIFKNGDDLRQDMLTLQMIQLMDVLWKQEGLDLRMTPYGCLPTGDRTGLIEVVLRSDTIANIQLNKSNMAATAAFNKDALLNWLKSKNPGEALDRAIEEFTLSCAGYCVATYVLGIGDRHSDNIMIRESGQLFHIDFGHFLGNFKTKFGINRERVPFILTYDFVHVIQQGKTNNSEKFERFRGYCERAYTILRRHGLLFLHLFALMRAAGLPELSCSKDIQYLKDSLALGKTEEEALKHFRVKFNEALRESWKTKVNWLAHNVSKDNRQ
PI3kδ, sequence (P27986 whole entry partner, canonical isoform): as the sequence (P27986 whole entry partner) above
PI3kγ, sequence (P48736 whole entry): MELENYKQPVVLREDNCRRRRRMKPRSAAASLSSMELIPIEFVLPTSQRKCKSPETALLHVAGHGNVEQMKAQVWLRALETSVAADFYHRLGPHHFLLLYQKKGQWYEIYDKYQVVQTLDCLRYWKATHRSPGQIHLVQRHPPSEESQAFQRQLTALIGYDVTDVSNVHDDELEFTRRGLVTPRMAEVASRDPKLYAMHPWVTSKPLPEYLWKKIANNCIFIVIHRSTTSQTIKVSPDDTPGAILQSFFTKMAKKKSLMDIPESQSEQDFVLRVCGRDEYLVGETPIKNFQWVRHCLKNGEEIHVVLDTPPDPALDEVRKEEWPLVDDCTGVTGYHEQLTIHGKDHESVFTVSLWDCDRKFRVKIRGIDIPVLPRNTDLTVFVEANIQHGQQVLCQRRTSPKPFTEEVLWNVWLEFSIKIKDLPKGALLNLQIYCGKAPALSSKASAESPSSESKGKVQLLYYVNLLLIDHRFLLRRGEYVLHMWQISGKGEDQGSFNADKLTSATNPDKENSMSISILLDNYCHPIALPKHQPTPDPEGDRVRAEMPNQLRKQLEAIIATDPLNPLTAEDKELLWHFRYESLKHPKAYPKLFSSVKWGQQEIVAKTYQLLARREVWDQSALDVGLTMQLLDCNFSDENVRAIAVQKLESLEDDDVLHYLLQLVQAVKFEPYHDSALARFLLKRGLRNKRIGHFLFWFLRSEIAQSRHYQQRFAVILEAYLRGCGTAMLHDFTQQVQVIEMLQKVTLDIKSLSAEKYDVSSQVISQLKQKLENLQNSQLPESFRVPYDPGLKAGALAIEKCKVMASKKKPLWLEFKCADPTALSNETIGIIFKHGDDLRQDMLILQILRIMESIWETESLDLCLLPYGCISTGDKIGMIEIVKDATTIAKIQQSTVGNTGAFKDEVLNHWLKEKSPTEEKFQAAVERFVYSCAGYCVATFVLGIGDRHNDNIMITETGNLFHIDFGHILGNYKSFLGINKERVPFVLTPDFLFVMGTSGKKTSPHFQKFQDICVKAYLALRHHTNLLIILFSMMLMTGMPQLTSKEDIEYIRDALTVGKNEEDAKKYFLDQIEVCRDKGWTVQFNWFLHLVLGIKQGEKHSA
PI3kα, sequence (P42336 whole entry): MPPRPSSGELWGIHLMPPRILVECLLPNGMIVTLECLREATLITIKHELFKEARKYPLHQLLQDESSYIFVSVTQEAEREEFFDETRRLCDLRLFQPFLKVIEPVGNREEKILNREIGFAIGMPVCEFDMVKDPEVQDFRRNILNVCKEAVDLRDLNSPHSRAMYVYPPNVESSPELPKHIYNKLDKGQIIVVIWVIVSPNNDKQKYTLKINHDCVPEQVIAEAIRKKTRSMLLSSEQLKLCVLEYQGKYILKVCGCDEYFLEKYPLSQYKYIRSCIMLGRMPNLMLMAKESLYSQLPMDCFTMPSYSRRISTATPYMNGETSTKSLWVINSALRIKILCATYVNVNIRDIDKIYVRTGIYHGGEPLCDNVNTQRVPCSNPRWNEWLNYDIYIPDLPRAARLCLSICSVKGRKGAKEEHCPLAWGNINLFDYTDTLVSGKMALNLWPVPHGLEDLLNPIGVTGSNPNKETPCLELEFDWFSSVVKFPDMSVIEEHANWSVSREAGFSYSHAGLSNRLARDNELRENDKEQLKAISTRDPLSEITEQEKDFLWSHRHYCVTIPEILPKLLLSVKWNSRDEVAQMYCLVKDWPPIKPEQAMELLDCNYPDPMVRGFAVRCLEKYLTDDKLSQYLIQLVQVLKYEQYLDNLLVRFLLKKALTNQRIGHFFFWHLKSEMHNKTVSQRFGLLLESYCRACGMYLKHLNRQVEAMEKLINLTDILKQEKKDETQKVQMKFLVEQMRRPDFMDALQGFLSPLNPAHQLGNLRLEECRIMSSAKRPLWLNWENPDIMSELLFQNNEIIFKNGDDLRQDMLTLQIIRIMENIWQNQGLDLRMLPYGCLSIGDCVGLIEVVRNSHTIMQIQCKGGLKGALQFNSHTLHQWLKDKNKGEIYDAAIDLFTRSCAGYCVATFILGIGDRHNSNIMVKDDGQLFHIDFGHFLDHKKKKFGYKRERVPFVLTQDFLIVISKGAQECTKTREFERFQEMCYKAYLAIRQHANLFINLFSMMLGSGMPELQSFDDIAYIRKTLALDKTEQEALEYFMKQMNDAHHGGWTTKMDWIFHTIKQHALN
PI3kα, sequence (P27986 whole entry partner): as the sequence (P27986 whole entry partner) above

As usually defined, the IC50 is the concentration that inhibits the measured activity by half. A higher IC50 goes with lower potency. The term inhibition denotes the share of the control response that was lost under treatment. Read a high inhibition as a response far below the control. A word on the melting point: it is the temperature of the solid-liquid transition. Take `CC(C)C(=O)Nc1ccc(-c2nn(C(C)c3oc4cccc(F)c4c(=O)c3-c3cccc(F)c3)c3ncnc(N4CCOCC4)c23)cc1F` (centres unmarked) [Example 87, N-(2-fluoro-4-(1-(1-(5-fluoro-3-(3-fluorophenyl)-4-oxo-4H-chromen-2-yl)ethyl)-4-morpholino-1H-pyrazolo[3,4-d]pyrimidin-3-yl)phenyl)isobutyramide]: the melting point is 168 to 170 °C. At PI3kδ, this compound yielded a half-inhibitory concentration (IC50) of 100 to 300 nM and an inhibition at 0.1 µM of 50 to 75%. For the same compound, the inhibition at 1 µM on PI3kβ was 50 to 75%. The compound further showed an inhibition at 0.1 µM against PI3kγ of 0 to 25%. Further, the inhibition at 1 µM on PI3kα was in the range of 25 to 50%.
With `Cc1n[nH]c2cc(-c3nn(C(C)c4oc5cccc(F)c5c(=O)c4-c4cccc(F)c4)c4ncnc(N5CCOCC5)c34)ccc12` (centres unmarked) [Example 112, 5-fluoro-3-(3-fluorophenyl)-2-(1-(3-(3-methyl-1H-indazol-6-yl)-4-morpholino-1H-pyrazolo[3,4-d]pyrimidin-1-yl)ethyl)-4H-chromen-4-one], the melting point lay in the range of 183 to 186 °C. Besides, on PI3kδ, the inhibition at 0.1 µM was 50 to 75%. The inhibition at 1 µM against PI3kβ is 0 to 25%. At PI3kγ, this compound showed an inhibition at 0.1 µM of 50 to 75%. Also, on PI3kα, the inhibition at 1 µM was in the range of 50 to 75%.
The compound `CC(C)Oc1ccc(-c2nn(C(C)c3oc4cccc(N5CCOCC5)c4c(=O)c3-c3ccccc3)c3ncnc(N)c23)cc1F` (centres unmarked) [Example 121, 2-(1-(4-amino-3-(3-fluoro-4-isopropoxyphenyl)-1H-pyrazolo[3,4-d]pyrimidin-1-yl)ethyl)-5-morpholino-3-phenyl-4H-chromen-4-one] registered a melting point of 211 to 214 °C. Further, the inhibition at 0.1 µM against PI3kδ lay in the range of 0 to 25%. At PI3kβ, the inhibition at 1 µM fell in the range of 25 to 50%. On PI3kγ, this compound registered an inhibition at 0.1 µM of 50 to 75%. The same compound gave an inhibition at 1 µM against PI3kα of 25 to 50%.
Compound `CC(c1oc2cccc(F)c2c(=O)c1-c1cccc(F)c1)n1nc(-c2ccc3c(c2)CNC3=O)c2c(N)ncnc21` (centres unmarked) [Example 123, 5-(4-amino-1-(1-(5-fluoro-3-(3-fluorophenyl)-4-oxo-4H-chromen-2-yl)ethyl)-1H-pyrazolo[3,4-d]pyrimidin-3-yl)isoindolin-1-one] came in with a melting point of 293 to 296 °C. Besides, at PI3kδ, the inhibition at 0.1 µM was in the range of 50 to 75%. Moreover, at PI3kβ, the inhibition at 1 µM was 25 to 50%. This compound came in with an inhibition at 0.1 µM on PI3kγ of 0 to 25%. Also, on PI3kα, the inhibition at 1 µM fell in the range of 0 to 25%.
Consider `CC(Nc1ncnc2[nH]cnc12)c1oc2cccc(F)c2c(=O)c1-c1ccccc1F` (centres unmarked) [Example 131, 2-(1-(9H-purin-6-ylamino)ethyl)-5-fluoro-3-(2-fluorophenyl)-4H-chromen-4-one], for which the melting point was in the range of 203 to 205 °C. For the same compound, the inhibition at 0.1 µM at PI3kδ lay within 25 to 50%. The same compound registered an inhibition at 1 µM at PI3kβ of 0 to 25%. At PI3kγ, the inhibition at 0.1 µM is 25 to 50%. The compound also yielded an inhibition at 1 µM against PI3kα of 25 to 50%.

For the origin of these results see patent publication US11020399B2, “Intermediates useful in the synthesis of compounds as modulators of protein kinases” (Rhizen Pharmaceuticals SA, priority 2011, dated 2021).
